# Values quoted from earlier work as cited in publication PMC4855509 (Photochemistry and photobiology, 2014).
substance,measurement,value
carboxy-tetramethylrhodamine [TMR],triplet state quantum yield,0.001–0.003
